In patent US9822114B2, “Tricyclic oxazolidinone antibiotic compounds” (Idorsia Pharmaceuticals Ltd, priority 2008, dated 2017):
In brackets after ≈: the same amount, converted by molar mass.

The compounds below were run on M. catarrhalis A894 (assay: Minimal inhibitory concentration (MIC), microdilution method in cation-adjusted Mueller-Hinton Broth (CLSI M7-A7)). Details: Moraxella catarrhalis, strain A894.
Assay type: cell-based
Procedure: Minimal inhibitory concentrations (MICs; mg/1) were determined in cation-adjusted Mueller-Hinton Broth by a microdilution method following the description given in “Methods for Dilution Antimicrobial Susceptibility Tests for Bacteria that Grow Aerobically”, Approved standard, 7th ed., Clinical and Laboratory Standards Institute (CLSI) Document M7-A7, Wayne, Pa., USA, 2006.

Compound	MIC [µg/mL]
O=C1COc2ccc(N3C[C@H](CCNCC4Cn5c(=O)cnc6cccc4c65)OC3=O)cc2N1 (mixture of isomers) [Example 154, (RS)-6-({2-[(S)-2-oxo-3-(3-oxo-3,4-dihydro-2H-benzo[1,4]oxazin-6-yl)-oxazolidin-5-yl]-ethylamino}-methyl)-5,6-dihydro-pyrrolo[1,2,3-de]quinoxalin-3-one]	≤ 0.031
CN1CC(=O)N2CC(NCCC[C@@H]3CN(c4ccc5c(n4)NC(=O)CS5)C(=O)O3)c3c(F)ccc1c32.Cl.Cl (mixture of isomers) [Example 201, (RS)-7-fluoro-6-{3-[(R)-2-oxo-3-(3-oxo-3,4-dihydro-2H-pyrido[3,2-b][1,4]thiazin-6-yl)-oxazolidin-5-yl]-propylamino}-1-methyl-1,2,5,6-tetrahydro-pyrrolo[1,2,3-de]quinoxalin-3-one dihydrochloride]	≤ 0.031
O=C1COc2ccc(N3C[C@@H](CCCN[C@@H]4Cn5c(=O)cnc6ccc(F)c4c65)OC3=O)cc2N1 [Example 57, (S)-7-fluoro-6-{3-[(R)-2-oxo-3-(3-oxo-3,4-dihydro-2H-benzo[1,4]oxazin-6-yl)-oxazolidin-5-yl]-propylamino}-5,6-dihydro-pyrrolo[1,2,3-de]quinoxalin-3-one]	≤ 0.031
O=C1CSc2ccc(N3C[C@@H](CCN[C@@H]4Cn5c(=O)cnc6cccc4c65)OC3=O)cc2N1 [Example 54, (S)-6-{2-[(R)-2-oxo-3-(3-oxo-3,4-dihydro-2H-benzo[1,4]thiazin-6-yl)-oxazolidin-5-yl]-ethylamino}-5,6-dihydro-pyrrolo[1,2,3-de]quinoxalin-3-one]	0.25 (≈ 0.539 µM)
O=C1CSc2ccc(N3C[C@H](CCNCC4Cn5c(=O)ccc6ncc(F)c4c65)OC3=O)cc2N1 (mixture of isomers) [Example 99, (RS)-3-fluoro-4-({2-[(S)-2-oxo-3-(3-oxo-3,4-dihydro-2H-benzo[1,4]thiazin-6-yl)-oxazolidin-5-yl]-ethylamino}-methyl)-4,5-dihydro-pyrrolo[3,2,1-de][1,5]naphthyridin-7-one]	≤ 0.031
O=C1COc2ccc(N3C[C@@H](CCCN[C@H]4Cn5c(=O)cnc6cccc4c65)OC3=O)nc2N1 [Example 75, (R)-6-{3-[(R)-2-oxo-3-(3-oxo-3,4-dihydro-2H-pyrido[3,2-b][1,4]oxazin-6-yl)-oxazolidin-5-yl]-propylamino}-5,6-dihydro-pyrrolo[1,2,3-de]quinoxalin-3-one]	≤ 0.031
O=C1CSc2ccc(N3C[C@@H](CCCN[C@H]4Cn5c(=O)ccc6ccc(F)c4c65)OC3=O)nc2N1 [Example 196, (R)-9-fluoro-1-{3-[(R)-2-oxo-3-(3-oxo-3,4-dihydro-2H-pyrido[3,2-b][1,4]thiazin-6-yl)-oxazolidin-5-yl]-propylamino}-1,2-dihydro-pyrrolo[3,2,1-ij]quinolin-4-one]	≤ 0.031
O=C1CSc2ccc(N3C[C@@H](CNCC4Cn5c(=O)ccc6cccc4c65)OC3=O)cc2N1 (mixture of isomers) [Example 63, (RS)-1-({[(R)-2-oxo-3-(3-oxo-3,4-dihydro-2H-benzo[1,4]thiazin-6-yl)-oxazolidin-5-ylmethyl]-amino}-methyl)-1,2-dihydro-pyrrolo[3,2,1-ij]quinolin-4-one]	0.031
O=C1CSc2ccc(N3C[C@@H](CCCN[C@H]4Cn5c(=O)cnc6ccc(F)c4c65)OC3=O)nc2N1 [Example 132, (R)-7-fluoro-6-{3-[(R)-2-oxo-3-(3-oxo-3,4-dihydro-2H-pyrido[3,2-b][1,4]thiazin-6-yl)-oxazolidin-5-yl]-propylamino}-5,6-dihydro-pyrrolo[1,2,3-de]quinoxalin-3-one]	≤ 0.031
O=C1CSc2ccc(N3C[C@H](CCNC[C@H]4Cn5c(=O)ccc6nccc4c65)OC3=O)cc2N1 [Example 77, (S)-4-({2-[(S)-2-oxo-3-(3-oxo-3,4-dihydro-2H-benzo[1,4]thiazin-6-yl)-oxazolidin-5-yl]-ethylamino}-methyl)-4,5-dihydro-pyrrolo[3,2,1-de][1,5]naphthyridin-7-one]	0.031 (≈ 0.0649 µM)
O=C1CSc2ccc(N3C[C@H]([C@H](O)CC(=O)N[C@@H]4Cn5c(=O)ccc6ccc(F)c4c65)OC3=O)cc2N1 (mixture of isomers) [Example 108, (RS)—N—((S)-9-fluoro-4-oxo-1,2-dihydro-4H-pyrrolo[3,2,1-ij]quinolin-1-yl)-3-hydroxy-3-[(RS)-2-oxo-3-(3-oxo-3,4-dihydro-2H-benzo[1,4]thiazin-6-yl)-oxazolidin-5-yl]-propionamide]	≤ 0.031
O=C1COc2ccc(N3C[C@@H](CCCN[C@@H]4Cn5c(=O)cnc6ccc(F)c4c65)OC3=O)nc2N1 [Example 71, (S)-7-fluoro-6-{3-[(R)-2-oxo-3-(3-oxo-3,4-dihydro-2H-pyrido[3,2-b][1,4]oxazin-6-yl)-oxazolidin-5-yl]-propylamino}-5,6-dihydro-pyrrolo[1,2,3-de]quinoxalin-3-one]	≤ 0.031
C[C@H]1[C@H](NCCC[C@@H]2CN(c3ccc4c(c3)NC(=O)CS4)C(=O)O2)c2c(F)ccc3ccc(=O)n1c23 (relative stereo) [Example 183, (1R*,2S*)-9-fluoro-2-methyl-1-{3-[(R)-2-oxo-3-(3-oxo-3,4-dihydro-2H-benzo[1,4]thiazin-6-yl)-oxazolidin-5-yl]-propylamino}-1,2-dihydro-pyrrolo[3,2,1-ij]quinolin-4-one]	≤ 0.031
O=C1CSc2ccc(N3C[C@@H](CCCNC4Cn5c(=O)ccc6ccc(Cl)c4c65)OC3=O)nc2N1 (mixture of isomers) [Example 177, (RS)-9-chloro-1-{3-[(R)-2-oxo-3-(3-oxo-3,4-dihydro-2H-pyrido[3,2-b][1,4]thiazin-6-yl)-oxazolidin-5-yl]-propylamino}-1,2-dihydro-pyrrolo[3,2,1-ij]quinolin-4-one]	≤ 0.031
O=C1CSc2ccc(N3C[C@@H](CCCN(CCCO)C4Cn5c(=O)ccc6ccc(F)c4c65)OC3=O)cc2N1 (mixture of isomers) [Example 92, (RS)-9-fluoro-1-((3-hydroxy-propyl)-{3-[(R)-2-oxo-3-(3-oxo-3,4-dihydro-2H-benzo[1,4]thiazin-6-yl)-oxazolidin-5-yl]-propyl}-amino)-1,2-dihydro-pyrrolo[3,2,1-ij]quinolin-4-one]	≤ 0.031
O=C1CSc2ccc(N3C[C@H](CCN[C@@H]4Cn5c(=O)cnc6cccc4c65)OC3=O)cc2N1 [Example 55, (S)-6-{2-[(S)-2-oxo-3-(3-oxo-3,4-dihydro-2H-benzo[1,4]thiazin-6-yl)-oxazolidin-5-yl]-ethylamino}-5,6-dihydro-pyrrolo[1,2,3-de]quinoxalin-3-one]	≤ 0.031
C[C@H]1[C@H](NCCC[C@H]2CN(c3ccc4c(c3)NC(=O)CS4)C(=O)O2)c2c(F)ccc3ccc(=O)n1c23 (relative stereo) [Example 184, (1R*,2S*)-9-fluoro-2-methyl-1-{3-[(S)-2-oxo-3-(3-oxo-3,4-dihydro-2H-benzo[1,4]thiazin-6-yl)-oxazolidin-5-yl]-propylamino}-1,2-dihydro-pyrrolo[3,2,1-ij]quinolin-4-one]	≤ 0.031
O=C1CSc2ccc(N3C[C@@H](CCCN[C@H]4Cn5c(=O)cnc6cccc4c65)OC3=O)cc2N1 [Example 64, (R)-6-{3-[(R)-2-oxo-3-(3-oxo-3,4-dihydro-2H-benzo[1,4]thiazin-6-yl)-oxazolidin-5-yl]-propylamino}-5,6-dihydro-pyrrolo[1,2,3-de]quinoxalin-3-one]	≤ 0.031
O=C1CSc2ccc(N3C[C@@H](CCCN[C@@H]4Cn5c(=O)ccc6ccc(F)c4c65)OC3=O)nc2N1 [Example 192, (S)-9-fluoro-1-{3-[(R)-2-oxo-3-(3-oxo-3,4-dihydro-2H-pyrido[3,2-b][1,4]thiazin-6-yl)-oxazolidin-5-yl]-propylamino}-1,2-dihydro-pyrrolo[3,2,1-ij]quinolin-4-one]	≤ 0.031
COc1nc2ccc(F)c3c2n(c1=O)C[C@@H]3NCCC[C@@H]1CN(c2ccc3c(c2)NC(=O)CS3)C(=O)O1 [Example 112, (R)-7-fluoro-2-methoxy-6-{3-[(R)-2-oxo-3-(3-oxo-3,4-dihydro-2H-benzo[1,4]thiazin-6-yl)-oxazolidin-5-yl]-propylamino}-5,6-dihydro-pyrrolo[1,2,3-de]quinoxalin-3-one]	≤ 0.031
O=C1CSc2ccc(N3C[C@@H](CCCNC4Cn5c(=O)cnc6cccc4c65)OC3=O)cc2N1 (mixture of isomers) [Example 20, (6RS)-6-{3-[(R)-2-oxo-3-(3-oxo-3,4-dihydro-2H-benzo[1,4]thiazin-6-yl)-oxazolidin-5-yl]-propylamino}-5,6-dihydro-pyrrolo[1,2,3-de]quinoxalin-3-one]	≤ 0.031
O=C1CSc2ccc(N3C[C@H](CCNC4Cn5c(=O)ccc6ncc(F)c4c65)OC3=O)cc2N1 (mixture of isomers) [Example 84, (RS)-3-fluoro-4-{2-[(S)-2-oxo-3-(3-oxo-3,4-dihydro-2H-benzo[1,4]thiazin-6-yl)-oxazolidin-5-yl]-ethylamino}-4,5-dihydro-pyrrolo[3,2,1-de][1,5]naphthyridin-7-one]	0.063

Same assay, conditions: strain A894

Compound	MIC for M. catarrhalis A894
(1R,2S)-2-methyl-1-{3-[(R)-2-oxo-3-(3-oxo-3,4-dihydro-2H-pyrido[3,2-b][1,4]thiazin-6-yl)-oxazolidin-5-yl]-propylamino}-1,2-dihydro-pyrrolo[3,2,1-ij]quinolin-4-one and (1S,2R)-2-methyl-1-{3-[(R)-2-oxo-3-(3-oxo-3,4-dihydro-2H-pyrido[3,2-b][1,4]thiazin-6-yl)-oxazolidin-5-yl]-propylamino}-1,2-dihydro-pyrrolo[3,2,1-ij]quinolin-4-one [Example 168]	≦0.031 mg/l
(1R,2R)-2-hydroxymethyl-1-{3-[(S)-2-oxo-3-(3-oxo-3,4-dihydro-2H-benzo[1,4]thiazin-6-yl)-oxazolidin-5-yl]-propylamino}-1,2-dihydro-pyrrolo[3,2,1-ij]quinolin-4-one and (1S,2S)-2-hydroxymethyl-1-{3-[(S)-2-oxo-3-(3-oxo-3,4-dihydro-2H-benzo[1,4]thiazin-6-yl)-oxazolidin-5-yl]-propylamino}-1,2-dihydro-pyrrolo[3,2,1-ij]quinolin-4-one [Example 164]	0.031 µg/mL
